What was measured:
[1] = target: T1, recombinant membrane-bound human mPGEs-1 (Homo sapiens, UniProt O14684); assay: Thiobarbituric acid assay (TBA-MDA assay), inhibition of human mPGEs-1; format: biochemical; conditions: arithmetic mean values
T1 sequence (O14684 1-152): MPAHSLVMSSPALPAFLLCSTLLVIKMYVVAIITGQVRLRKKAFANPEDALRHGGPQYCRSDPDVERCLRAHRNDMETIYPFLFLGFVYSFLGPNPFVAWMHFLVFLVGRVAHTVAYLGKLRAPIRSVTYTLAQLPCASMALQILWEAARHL
Text: Malondialdehyde is a product of lipid peroxidation and reacts with thiobarbituric acid forming a red product that absorbs light at 535 nm (W. G. Niehaus, Jr and B. Samuelsson, Eur. J. Biochem 6, 126 (1968)) and is also fluorescent. The extinction coefficient of the TBA-MDA conjugate is 1.56×10^5 M^−1 cm^−1 (E. D. Wills. Biochem. J. 113, 315 (1969). The method used for detection of inhibition of mPGEs-1 is based on the detection of the amount of remaining PGH2. This method was described more than 20 years ago by Basevich et al (Bioorg. Khim. 1983, 9(5), 658-665).
The assay used was a modified variant and used citric acid instead of the TCA-TBA-HCl reagent described in the original assay. In this assay, recombinant membrane-bound human mPGEs-1 was incubated with PGH2. The reaction was stopped by adding citric acid to a final pH 3 and a large excess of iron(II) chloride (20 mM) to convert any remaining PGH2 into MDA and 12-HHT. TBA reagent was finally added (0.67%) and the samples were heated at 80° C. for 30 min. The fluorescence of the conjugate was measured at 485/545 nm.
The product of mPGEs-1 (PGE2) was not measured directly in this assay, but rather the remaining substrate (PGH2) indirectly by adding FeCl2 that converts PGH2 into MDA and 12-HHT. As a positive control, a known mPGEs-1 inhibitor, MK-886, was used and the inhibition afforded by the new inhibitors was compared with that obtained from MK-886.

[2] = test system: A549 lung carcinoma cells; assay: A549 cell-assay, cellular PGE2 synthesis; format: cell-based; conditions: Homo sapiens, PGE2 content by EIA, TNFalfa/IL-1beta stimulated cells, 10 μM arachidonic acid, arithmetic mean values
Protocol: Prostaglandin detection kits were purchased from Cayman Chemicals and used according to the instruction of the manufacturer.
A549 lung carcinoma cells, seeded at a density of 10,000 cells/well, were grown in 96 well tissue culture plates. TNFalfa (5 ng/mL) and IL-1beta (5 ng/mL) were added and the cells were incubated for 16 hours. Cells were washed in PBS and test compounds at the appropriate concentration in HBSS/0.1% BSA were added. After 30 minutes of incubation with test compounds, 10 μM arachidonic acid was added and cells were further incubated for 30 minutes. Supernatant was collected and analyzed for PGE2 content by EIA according to manufacturer's instructions.

IC50 [1] | IC50 [2] | SMILES
58 nM | 85 nM | Cc1cc2c(cc1Cl)nc(N1CCC(C(=O)N[C@@H]3CCOC3)CC1)n2-c1ccc(C(F)(F)F)cn1 [Example 3, (R)-1-(5-chloro-6-methyl-1-(5-(trifluoromethyl)pyridin-2-yl)-1H-benzo[d]imidazol-2-yl)-N-(tetrahydrofuran-3-yl)-piperidine-4-carboxamide]
24 nM | 52 nM | Cc1cc2nc(N3CCC(C(=O)N[C@@H]4CCOC4)CC3)n(-c3cccc(C(F)(F)F)n3)c2cc1Cl [Example 2, (R)-1-(6-chloro-5-methyl-1-(6-(trifluoromethyl)pyridin-2-yl)-1H-benzoimidazol-2-yl)-N-(tetrahydrofuran-3-yl)piperidine-4-carboxamide]
18 nM | 28 nM | Cc1cc2c(cc1Cl)nc(N1CCC(C(=O)N[C@@H]3CCOC3)CC1)n2-c1cccc(C(F)(F)F)n1 [Example 1, (R)-1-(5-chloro-6-methyl-1-(6-(trifluoromethyl)pyridin-2-yl)-111-benzo[d]imidazol-2-yl)-N-(tetrahydrofuran-3-yl)piperidine-4-carboxamide]
46 nM | 122 nM | Cc1cc2nc(N3CCC(C(=O)N[C@@H]4CCOC4)CC3)n(-c3ccc(C(F)(F)F)cn3)c2cc1Cl [Example 4, (R)-1-(6-chloro-5-methyl-1-(5-(trifluoromethyl)pyridin-2-yl)-1H-benzo[d]imidazol-2-yl)-N-(tetrahydrofuran-3-yl)-piperidine-4-carboxamide]
